Laboratory results as given in article PMC10222582, “Iminosugar-Based Nicotinamide Phosphoribosyltransferase (NAMPT) Inhibitors as Potential Anti-Pancreatic Cancer Agents” (Pharmaceutics, 2023).

Columns and labels:
MiaPaCa-2 cells [1] = assay: Measurement of intracellular NAD+ levels (cycling enzymatic assay); assay type: cell-based, human; conditions: 24 h, 100 μM of inhibitor, SD < 20%
recombinant human NAMPT = biological target: T1, recombinant human NAMPT (Homo sapiens, UniProt P43490); assay: NAMPT inhibition (fluorometric NMN detection); assay type: biochemical; conditions: NI = No inhibition at concentration < 1 mM, SD < 20%
T1 construct: purchased Abcam ab198090
T1 sequence (P43490 whole entry): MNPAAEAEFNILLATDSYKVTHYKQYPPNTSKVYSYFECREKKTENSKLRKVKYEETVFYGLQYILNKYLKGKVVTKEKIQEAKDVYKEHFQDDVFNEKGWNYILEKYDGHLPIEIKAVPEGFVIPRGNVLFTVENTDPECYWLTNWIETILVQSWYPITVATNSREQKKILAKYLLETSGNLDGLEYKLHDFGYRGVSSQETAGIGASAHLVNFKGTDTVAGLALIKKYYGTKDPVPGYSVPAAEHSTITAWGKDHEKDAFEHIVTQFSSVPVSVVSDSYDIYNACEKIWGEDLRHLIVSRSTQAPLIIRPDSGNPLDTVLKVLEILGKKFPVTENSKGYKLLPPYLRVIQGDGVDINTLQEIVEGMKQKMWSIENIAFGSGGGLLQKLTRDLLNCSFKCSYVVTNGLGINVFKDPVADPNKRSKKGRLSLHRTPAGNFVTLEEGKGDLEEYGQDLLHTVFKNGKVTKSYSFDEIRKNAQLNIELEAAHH

MiaPaCa-2 cells [2] = assay: Cell viability assay (SRB); assay type: cell-based; conditions: Homo sapiens, MIA PaCa-2, MiaPaCa-2, 72 h
Method: Cell viability assay. MiaPaCa-2 cells (2 × 10^3/well) were plated in 96−well plates and left to adhere overnight. After 24 h the cells were treated with the inhibitors. Viability was determined after 72 h. The culture plates were fixed with cold 3% trichloroacetic acid at 4 °C for 30 min, washed with cold water and dried overnight. Finally, the plates were stained with 0.4% sulforodhamine B (SRB) in 1% acetic acid, washed four times with 1% acetic acid to remove unbound dye, dried overnight and then the stain was extracted with 10 mM Tris Base and the absorbance was read at 560 nm.
Then, the new compounds were tested in vitro for their anti-proliferative effect, using the human pancreatic cancer cell line MiaPaca-2 in the cytotoxicity assays (Table 1).

MiaPaCa-2 cells [3] = assay: Measurement of intracellular NAD+ levels (cycling enzymatic assay); assay type: cell-based, human; parameters: dose or concentration left out as unconfirmed; conditions: after 24 h
Method: Measurement of intracellular NAD^+ levels. MiaPaCa-2 cells were plated at a density of 6.5 × 10^4 cells/well in 12−well plates. After 24 h, cells were treated (or not) with the different compounds and cultured for a further 24 h. Cells were harvested and lysed in 0.1 mL 0.6 M perchloric acid. Intracellular NAD^+ levels were determined with a cycling enzymatic assay, as previously reported.
In order to confirm that the above-mentioned anti-proliferative effect of the new NAMPT inhibitors were associated with NAD^+ depletion, we evaluated the intracellular NAD^+ concentration (iNAD^+) in MiaPaCa-2 cells for all the compounds (at a fixed […] concentration). After 24 h, only the iminosugar-based inhibitors 22 (77%) and 29 (79%), as well as the non-carbohydrate analogue 42 (61%), led to significant depletion; the other compounds exerted an effect in the 0–10% range.

[4] = NI (footnote 3) = No inhibition at concentration < 400 μM, SD < 20%

Compound	IC50 (recombinant human NAMPT)	IC50 (MiaPaCa-2 cells [2]; NI (footnote 2) = No inhibition at concentration < 100 μM)	IC50 (MiaPaCa-2 cells [2]; [4])	iNAD+ Depletion (%) (MiaPaCa-2 cells [1])	intracellular NAD+ depletion (MiaPaCa-2 cells [3])
CC(C)(C)c1ccc(S(=O)(=O)N2CCC(CCCC(=O)Nc3ccc([C@@H]4N[C@H](CO)[C@@H](O)[C@H]4O)cc3)CC2)cc1 [Compound 21]	> 1000 µM	> 400 µM		0%	
O=C(CCCCCNC(=O)c1ccccc1)Nc1ccc([C@@H]2N[C@H](CO)[C@@H](O)[C@H]2O)cc1 [Compound 23]	363 µM		> 400 µM	5%	
CC(C)(C)c1ccc(S(=O)(=O)NCc2ccc(C(=O)Nc3ccc([C@@H]4N[C@H](CO)[C@@H](O)[C@H]4O)cc3)cc2)cc1 [Compound 24]	549 µM		> 400 µM	9%	
O=C(NCc1ccc(C(=O)Nc2ccc([C@@H]3N[C@H](CO)[C@@H](O)[C@H]3O)cc2)cc1)c1ccccc1 [Compound 25]	> 1000 µM		> 400 µM	0%	
COC[C@H]1N[C@@H](c2ccc(NC(=O)CCCC3CCN(C(=O)c4ccccc4)CC3)cc2)[C@H](OC)[C@@H]1OC [Compound 27]	> 1000 µM		539 µM	0%	
COC[C@H]1N[C@@H](c2ccc(NC(=O)CCCCCNC(=O)c3ccccc3)cc2)[C@H](OC)[C@@H]1OC [Compound 28]	603 µM		> 400 µM	3%	
COC[C@H]1N[C@@H](c2ccc(NC(=O)c3ccc(CNC(=O)c4ccccc4)cc3)cc2)[C@H](OC)[C@@H]1OC [Compound 30]	> 1000 µM		920 µM	0%	
O=C(CCCC1CCN(C(=O)c2ccccc2)CC1)Nc1ccccc1 [Compound 35]	> 1000 µM		91.4 µM	4%	
O=C(/C=C/c1cccnc1)NCCCCC1CCN(C(=O)c2ccccc2)CC1 [FK866, reference compound]			0.0024 µM	90%	

Continued, in another order:

IC50 (recombinant human NAMPT)	IC50 (MiaPaCa-2 cells [2]; NI (footnote 2) = No inhibition at concentration < 100 μM)	IC50 (MiaPaCa-2 cells [2]; [4])	Compound	iNAD+ Depletion (%) (MiaPaCa-2 cells [1])	intracellular NAD+ depletion (MiaPaCa-2 cells [3])
99.5 µM		108 µM	O=C(CCCC1CCN(C(=O)c2ccccc2)CC1)Nc1ccc([C@@H]2N[C@H](CO)[C@@H](O)[C@H]2O)cc1 [Compound 22]	77%	77%
139 µM		37 µM	COC[C@H]1N[C@@H](c2ccc(NC(=O)CCCC3CCN(S(=O)(=O)c4ccc(C(C)(C)C)cc4)CC3)cc2)[C@H](OC)[C@@H]1OC [Compound 26]	10%	
63 µM		32 µM	COC[C@H]1N[C@@H](c2ccc(NC(=O)c3ccc(CNS(=O)(=O)c4ccc(C(C)(C)C)cc4)cc3)cc2)[C@H](OC)[C@@H]1OC [Compound 29]	79%	79%
357 µM		46.6 µM	CC(C)(C)c1ccc(S(=O)(=O)N2CCC(CCCC(=O)Nc3ccccc3)CC2)cc1 [Compound 34]	6%	
113 µM		340 µM	O=C(CCCCCNC(=O)c1ccccc1)Nc1ccccc1 [Compound 38]	0%	
43 µM		> 400 µM	CC(C)(C)c1ccc(S(=O)(=O)NCc2ccc(C(=O)Nc3ccccc3)cc2)cc1 [Compound 42]	61%	61%
283 µM		698 µM	O=C(NCc1ccc(C(=O)Nc2ccccc2)cc1)c1ccccc1 [Compound 43]	1%	
